Experimental data from ChEMBL document CHEMBL4364276, “Discovery of 4-phenyl-2H-benzo[b][1,4]oxazin-3(4H)-one derivatives as potent and orally active PI3K/mTOR dual inhibitors” (Eur J Med Chem, 2019).

Columns and labels:
[1] = target: Serine/threonine-protein kinase Sgk3 (Homo sapiens) (UniProt Q96BR1); experiment: Inhibition of human SGK3 at 100 nM using GRPRTSSFAEG as substrate by [gamma-33P]-ATP assay
[2] = target: MAP kinase-activated protein kinase 5 (Homo sapiens) (UniProt Q8IW41); experiment: Inhibition of human MAPKAPK5 at 100 nM using KKLNRTLSVA as substrate by [gamma-33P]-ATP assay
[3] = target: Tyrosine-protein kinase JAK3 (Homo sapiens) (UniProt P52333); experiment: Inhibition of human JAK3 at 100 nM using poly[Glu:Tyr] (4:1) as substrate by [gamma-33P]-ATP assay
Homo sapiens = species: Homo sapiens; experiment: Inhibition of human AMPK (A2/B2/G3) at 100 nM using HMRSAMSGLHLVKRR as substrate by [gamma-33P]-ATP assay
[4] = target: Homeodomain-interacting protein kinase 2 (Homo sapiens) (UniProt Q9H2X6); experiment: Inhibition of human HIPK2 at 100 nM using MBP as substrate by [gamma-33P]-ATP assay
[5] = target: Receptor-interacting serine/threonine-protein kinase 2 (Homo sapiens) (UniProt O43353); experiment: Inhibition of human RIPK2 at 100 nM using MBP as substrate by [gamma-33P]-ATP assay
[6] = target: Protein-tyrosine kinase 2-beta (Homo sapiens) (UniProt Q14289); experiment: Inhibition of human PYK2 at 100 nM using poly[Glu:Tyr] (4:1) as substrate by [gamma-33P]-ATP assay
[7] = target: Hepatocyte growth factor receptor (Homo sapiens) (UniProt P08581); experiment: Inhibition of human c-MET at 100 nM using KKKSPGEYVNIEFG as substrate by [gamma-33P]-ATP assay
[8] = target: Cyclin-dependent kinase 5/CDK5 activator 1 (Homo sapiens) (UniProt Q00535+Q15078); experiment: Inhibition of human CDK5/p25 at 100 nM using histone H1 as substrate by [gamma-33P]-ATP assay; type: protein-complex assay
[9] = target: Dual specificity mitogen-activated protein kinase kinase 6 (Homo sapiens) (UniProt P52564); experiment: Inhibition of human MKK6 at 100 nM using p38alpha as substrate by [gamma-33P]-ATP assay
[10] = target: Serine/threonine-protein kinase SBK1 (Homo sapiens) (UniProt Q52WX2); experiment: Inhibition of human SBK1 at 100 nM using LCGRTGRRNSI as substrate by [gamma-33P]-ATP assay
[11] = target: CDK9/cyclin T1 (Homo sapiens) (UniProt O60563+P50750); experiment: Inhibition of human CDK9/cyclin-T1 at 100 nM using KTFCGTPEYLAPEVRREPRILSEEEQEMFRDFDYIADWC as substrate by [gamma-33P]-ATP assay; type: protein-complex assay
A549 = experiment: cells; conditions: Homo sapiens, A549, 72 h
[12] = target: Ephrin type-A receptor 5 (Homo sapiens) (UniProt P54756); experiment: Inhibition of human EPHA5 at 100 nM using poly[Glu:Tyr] (4:1) as substrate by [gamma-33P]-ATP assay
[13] = target: Myosin-IIIb (Homo sapiens) (UniProt Q8WXR4); experiment: Inhibition of human MYO3B at 100 nM using MBP as substrate by [gamma-33P]-ATP assay
[14] = target: Serine/threonine-protein kinase Nek7 (Homo sapiens) (UniProt Q8TDX7); experiment: Inhibition of human NEK7 at 100 nM using casein as substrate by [gamma-33P]-ATP assay
[15] = target: CDK7/Cyclin H/MNAT1 (Homo sapiens) (UniProt P51946+P50613+P51948); experiment: Inhibition of human CDK7/cyclin-H/MNAT1 at 100 nM using MBP as substrate by [gamma-33P]-ATP assay; type: protein-complex assay
[16] = target: CDK1/Cyclin A (Homo sapiens) (UniProt P06493+P20248); experiment: Inhibition of human CDK1/Cyclin-A at 100 nM using Histone H1 as substrate by [gamma-33P]-ATP assay; type: protein-complex assay
[17] = target: CDK2/Cyclin O (Homo sapiens) (UniProt P24941+P22674); experiment: Inhibition of human CDK2/cyclin-O at 100 nM using histone H1 as substrate by [gamma-33P]-ATP assay; type: protein-complex assay
[18] = target: Cyclin-dependent kinase 1/cyclin B1 (Homo sapiens) (UniProt P06493+P14635); experiment: Inhibition of human CDK1/cyclinB at 100 nM using Histone H1 as substrate by [gamma-33P]-ATP assay; type: protein-complex assay
[19] = target: Protein kinase C beta type (Homo sapiens) (UniProt P05771); experiment: Inhibition of human PKCb1 at 100 nM using Histone H1 as substrate by [gamma-33P]-ATP assay
[20] = target: [Pyruvate dehydrogenase (acetyl-transferring)] kinase isozyme 3, mitochondrial (Homo sapiens) (UniProt Q15120); experiment: Inhibition of human PDK3 at 100 nM using MBP as substrate by [gamma-33P]-ATP assay
[21] = target: Serine/threonine-protein kinase 25 (Homo sapiens) (UniProt O00506); experiment: Inhibition of human STK25 at 100 nM using MBP as substrate by [gamma-33P]-ATP assay
[22] = target: Ephrin type-A receptor 1 (Homo sapiens) (UniProt P21709); experiment: Inhibition of human EPHA1 at 100 nM using poly[Glu:Tyr] (4:1) as substrate by [gamma-33P]-ATP assay
[23] = target: Serine/threonine-protein kinase N3 (Homo sapiens) (UniProt Q6P5Z2); experiment: Inhibition of human PKN3 at 100 nM using KKLNRTLSVA as substrate by [gamma-33P]-ATP assay
[24] = target: Serine/threonine-protein kinase NLK (Homo sapiens) (UniProt Q9UBE8); experiment: Inhibition of human NLK at 100 nM using MBP as substrate by [gamma-33P]-ATP assay
[25] = target: Vascular endothelial growth factor receptor 2 (Homo sapiens) (UniProt P35968); experiment: Inhibition of human KDR at 100 nM using poly[Glu:Tyr] (4:1) as substrate by [gamma-33P]-ATP assay
[26] = target: Rhodopsin kinase GRK1 (Homo sapiens) (UniProt Q15835); experiment: Inhibition of human GRK1 at 100 nM using casein as substrate by [gamma-33P]-ATP assay
[27] = target: Tyrosine-protein kinase HCK (Homo sapiens) (UniProt P08631); experiment: Inhibition of human HCK at 100 nM using KVEKIGEGTYGVVYK as substrate by [gamma-33P]-ATP assay
[28] = target: Serine/threonine-protein kinase mTOR (Homo sapiens, UniProt P42345); experiment: Inhibition of recombinant human N-terminal FLAG-tagged mTOR (1362 to end residues) using Ulight-4E-BP1 as substrate incubated for 30 mins by fluorescence assay
[29] = target: Dual specificity mitogen-activated protein kinase kinase 3 (Homo sapiens) (UniProt P46734); experiment: Inhibition of human MEK3 at 100 nM using p38alpha as substrate by [gamma-33P]-ATP assay

Chain of Serine/threonine-protein kinase Sgk3 (Homo sapiens) (Q96BR1 whole entry): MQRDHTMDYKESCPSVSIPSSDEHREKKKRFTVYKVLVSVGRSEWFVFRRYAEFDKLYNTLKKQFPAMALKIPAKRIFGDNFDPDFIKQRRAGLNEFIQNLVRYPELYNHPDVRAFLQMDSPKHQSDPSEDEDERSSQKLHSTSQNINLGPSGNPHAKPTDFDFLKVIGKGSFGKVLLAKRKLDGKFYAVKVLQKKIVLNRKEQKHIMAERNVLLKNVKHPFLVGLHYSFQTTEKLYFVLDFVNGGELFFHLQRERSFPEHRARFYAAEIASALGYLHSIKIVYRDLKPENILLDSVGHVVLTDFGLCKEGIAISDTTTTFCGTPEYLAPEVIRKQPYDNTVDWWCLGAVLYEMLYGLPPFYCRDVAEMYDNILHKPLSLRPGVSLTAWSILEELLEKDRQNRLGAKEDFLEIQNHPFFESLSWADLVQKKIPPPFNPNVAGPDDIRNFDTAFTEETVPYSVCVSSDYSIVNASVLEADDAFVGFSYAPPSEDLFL
Chain of Protein-tyrosine kinase 2-beta (Homo sapiens) (Q14289 whole entry, looked up): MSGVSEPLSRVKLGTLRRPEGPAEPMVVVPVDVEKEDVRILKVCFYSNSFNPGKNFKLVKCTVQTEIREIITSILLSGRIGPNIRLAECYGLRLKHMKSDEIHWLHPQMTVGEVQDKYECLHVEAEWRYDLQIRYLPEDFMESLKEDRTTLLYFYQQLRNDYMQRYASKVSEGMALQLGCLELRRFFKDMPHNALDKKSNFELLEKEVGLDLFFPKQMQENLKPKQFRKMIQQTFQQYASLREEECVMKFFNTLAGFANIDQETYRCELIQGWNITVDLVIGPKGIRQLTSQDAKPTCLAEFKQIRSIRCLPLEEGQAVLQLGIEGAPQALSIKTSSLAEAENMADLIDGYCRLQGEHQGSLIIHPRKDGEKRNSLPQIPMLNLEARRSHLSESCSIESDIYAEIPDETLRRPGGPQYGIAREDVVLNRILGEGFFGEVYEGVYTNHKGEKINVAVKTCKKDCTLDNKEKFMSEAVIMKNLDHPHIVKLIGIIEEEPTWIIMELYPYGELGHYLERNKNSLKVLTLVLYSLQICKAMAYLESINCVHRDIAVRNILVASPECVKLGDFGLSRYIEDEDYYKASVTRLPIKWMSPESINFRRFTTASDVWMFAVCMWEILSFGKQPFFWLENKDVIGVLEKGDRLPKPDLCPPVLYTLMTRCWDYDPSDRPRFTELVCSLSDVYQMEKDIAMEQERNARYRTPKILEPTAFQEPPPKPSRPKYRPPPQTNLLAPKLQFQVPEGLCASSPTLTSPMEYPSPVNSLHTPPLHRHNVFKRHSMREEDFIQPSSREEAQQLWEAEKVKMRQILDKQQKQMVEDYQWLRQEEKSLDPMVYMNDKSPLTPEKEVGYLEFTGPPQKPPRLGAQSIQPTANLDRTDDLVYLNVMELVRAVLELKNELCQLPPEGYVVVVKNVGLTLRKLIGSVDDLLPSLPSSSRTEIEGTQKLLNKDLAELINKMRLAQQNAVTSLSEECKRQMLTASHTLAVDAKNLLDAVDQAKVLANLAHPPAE
Chain of Myosin-IIIb (Homo sapiens) (Q8WXR4 whole entry): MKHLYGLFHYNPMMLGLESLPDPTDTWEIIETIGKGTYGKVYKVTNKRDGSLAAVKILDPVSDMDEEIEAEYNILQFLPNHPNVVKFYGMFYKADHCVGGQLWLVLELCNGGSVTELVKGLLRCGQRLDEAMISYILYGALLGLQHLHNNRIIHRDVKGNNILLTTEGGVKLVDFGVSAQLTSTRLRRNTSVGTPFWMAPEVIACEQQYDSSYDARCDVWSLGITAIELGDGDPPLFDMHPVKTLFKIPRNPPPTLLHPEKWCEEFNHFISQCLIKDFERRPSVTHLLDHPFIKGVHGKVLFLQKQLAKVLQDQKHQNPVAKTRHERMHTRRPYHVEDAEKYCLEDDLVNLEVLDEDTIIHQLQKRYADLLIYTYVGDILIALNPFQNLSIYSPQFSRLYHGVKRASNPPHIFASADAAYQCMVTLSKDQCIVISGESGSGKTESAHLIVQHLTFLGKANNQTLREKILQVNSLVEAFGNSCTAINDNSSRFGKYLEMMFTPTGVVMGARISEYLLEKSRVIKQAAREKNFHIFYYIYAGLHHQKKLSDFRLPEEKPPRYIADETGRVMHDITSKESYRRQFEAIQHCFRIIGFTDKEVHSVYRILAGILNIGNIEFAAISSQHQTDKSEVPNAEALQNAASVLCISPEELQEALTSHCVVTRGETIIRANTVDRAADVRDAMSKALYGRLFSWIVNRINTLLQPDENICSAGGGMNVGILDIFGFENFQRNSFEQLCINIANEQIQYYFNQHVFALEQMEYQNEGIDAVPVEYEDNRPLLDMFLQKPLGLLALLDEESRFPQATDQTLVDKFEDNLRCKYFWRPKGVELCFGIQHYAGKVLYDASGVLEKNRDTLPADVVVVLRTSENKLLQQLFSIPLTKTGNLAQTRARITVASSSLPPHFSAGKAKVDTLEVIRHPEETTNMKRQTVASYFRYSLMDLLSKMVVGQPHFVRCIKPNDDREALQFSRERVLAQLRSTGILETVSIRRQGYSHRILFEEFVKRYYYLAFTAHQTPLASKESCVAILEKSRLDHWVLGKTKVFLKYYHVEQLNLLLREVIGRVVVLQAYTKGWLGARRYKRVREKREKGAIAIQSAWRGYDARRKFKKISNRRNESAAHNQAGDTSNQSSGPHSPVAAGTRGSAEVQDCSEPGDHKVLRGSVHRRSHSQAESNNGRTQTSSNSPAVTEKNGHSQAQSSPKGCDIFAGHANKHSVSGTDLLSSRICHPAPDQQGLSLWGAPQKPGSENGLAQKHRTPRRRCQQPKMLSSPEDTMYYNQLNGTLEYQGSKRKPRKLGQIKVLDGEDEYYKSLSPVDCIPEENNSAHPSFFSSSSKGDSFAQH
Chain of Vascular endothelial growth factor receptor 2 (Homo sapiens) (P35968 whole entry): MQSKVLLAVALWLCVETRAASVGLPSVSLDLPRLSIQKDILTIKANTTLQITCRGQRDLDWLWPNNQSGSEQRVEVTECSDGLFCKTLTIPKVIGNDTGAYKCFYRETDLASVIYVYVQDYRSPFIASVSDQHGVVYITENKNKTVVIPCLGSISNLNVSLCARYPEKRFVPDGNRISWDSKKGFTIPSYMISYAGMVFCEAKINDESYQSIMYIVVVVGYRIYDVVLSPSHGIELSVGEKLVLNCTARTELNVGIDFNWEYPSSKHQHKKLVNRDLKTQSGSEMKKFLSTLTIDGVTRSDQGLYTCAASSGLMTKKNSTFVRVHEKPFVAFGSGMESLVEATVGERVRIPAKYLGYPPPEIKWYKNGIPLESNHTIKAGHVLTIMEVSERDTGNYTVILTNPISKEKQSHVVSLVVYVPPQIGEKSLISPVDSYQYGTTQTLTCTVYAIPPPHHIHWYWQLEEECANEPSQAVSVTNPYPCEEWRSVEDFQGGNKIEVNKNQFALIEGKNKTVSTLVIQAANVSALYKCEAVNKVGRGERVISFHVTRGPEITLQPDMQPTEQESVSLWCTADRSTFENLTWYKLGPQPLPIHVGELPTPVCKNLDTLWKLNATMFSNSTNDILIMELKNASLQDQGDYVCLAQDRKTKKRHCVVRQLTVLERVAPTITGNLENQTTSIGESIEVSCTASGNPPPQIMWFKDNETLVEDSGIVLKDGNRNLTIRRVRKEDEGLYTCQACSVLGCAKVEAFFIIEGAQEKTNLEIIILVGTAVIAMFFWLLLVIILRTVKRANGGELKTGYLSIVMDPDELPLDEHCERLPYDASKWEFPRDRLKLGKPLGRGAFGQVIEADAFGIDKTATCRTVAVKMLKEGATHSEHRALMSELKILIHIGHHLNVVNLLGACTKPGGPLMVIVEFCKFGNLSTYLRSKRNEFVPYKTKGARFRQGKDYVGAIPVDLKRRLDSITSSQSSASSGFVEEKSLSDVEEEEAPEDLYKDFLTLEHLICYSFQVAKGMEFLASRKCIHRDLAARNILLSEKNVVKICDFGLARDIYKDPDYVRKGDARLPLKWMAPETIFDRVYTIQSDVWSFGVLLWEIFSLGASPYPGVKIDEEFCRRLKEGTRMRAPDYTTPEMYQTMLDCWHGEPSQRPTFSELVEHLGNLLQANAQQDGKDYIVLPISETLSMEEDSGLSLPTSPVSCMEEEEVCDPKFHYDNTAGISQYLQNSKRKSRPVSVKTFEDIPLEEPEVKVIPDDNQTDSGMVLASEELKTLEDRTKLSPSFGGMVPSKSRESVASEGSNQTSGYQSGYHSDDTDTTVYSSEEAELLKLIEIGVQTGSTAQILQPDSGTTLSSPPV
Chain of Serine/threonine-protein kinase Nek7 (Homo sapiens) (Q8TDX7 whole entry, looked up): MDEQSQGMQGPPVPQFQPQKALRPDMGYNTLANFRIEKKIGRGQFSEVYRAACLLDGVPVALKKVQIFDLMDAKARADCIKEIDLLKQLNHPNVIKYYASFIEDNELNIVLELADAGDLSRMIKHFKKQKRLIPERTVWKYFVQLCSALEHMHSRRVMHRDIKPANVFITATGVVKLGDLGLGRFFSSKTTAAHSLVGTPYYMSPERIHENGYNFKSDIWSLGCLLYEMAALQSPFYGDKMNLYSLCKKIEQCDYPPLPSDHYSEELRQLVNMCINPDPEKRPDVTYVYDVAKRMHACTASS
Chain of Tyrosine-protein kinase HCK (Homo sapiens) (P08631 2-526 limits assumed): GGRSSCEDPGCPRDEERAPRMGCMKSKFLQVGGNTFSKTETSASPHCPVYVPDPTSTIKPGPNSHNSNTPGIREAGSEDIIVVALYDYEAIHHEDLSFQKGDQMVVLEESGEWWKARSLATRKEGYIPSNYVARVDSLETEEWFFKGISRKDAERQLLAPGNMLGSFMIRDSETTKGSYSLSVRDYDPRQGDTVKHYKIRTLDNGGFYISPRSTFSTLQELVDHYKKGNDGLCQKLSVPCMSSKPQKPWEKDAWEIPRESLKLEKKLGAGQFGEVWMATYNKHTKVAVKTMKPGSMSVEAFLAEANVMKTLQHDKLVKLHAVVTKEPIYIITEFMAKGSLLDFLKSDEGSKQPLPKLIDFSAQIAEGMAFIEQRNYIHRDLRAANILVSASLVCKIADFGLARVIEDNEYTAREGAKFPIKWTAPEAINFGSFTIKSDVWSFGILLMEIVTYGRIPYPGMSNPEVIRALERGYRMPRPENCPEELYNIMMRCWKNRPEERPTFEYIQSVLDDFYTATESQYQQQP

## COc1ccc(N2C(=O)COc3ccc(-c4cnc(OC)c(NS(=O)(=O)c5ccc(F)cc5)c4)cc32)cc1
[1]
  inhibition: 3.8%
[2]
  inhibition: 5.14%
[3]
  inhibition: -4.79%
Homo sapiens
  inhibition: 5.47%
[4]
  inhibition: -4.94%
[5]
  inhibition: 14.2%
[6]
  inhibition: 6.22%
[7]
  inhibition: -7.9%
[8]
  inhibition: 9.26%
[9]
  inhibition: 4.5%
[10]
  inhibition: 7.68%
[11]
  inhibition: 16.8%
A549
  IC50: 1350 nM
[12]
  inhibition: 3.06%
[13]
  inhibition: 8.36%
[14]
  inhibition: 4.12%
[15]
  inhibition: -3.2%
[16]
  inhibition: 16%
[17]
  inhibition: 0.23%
[18]
  inhibition: -2.84%
[19]
  inhibition: 7.83%
[20]
  inhibition: 8.78%
[21]
  inhibition: 0.52%
[22]
  inhibition: 4.93%
[23]
  inhibition: -1.97%
[24]
  inhibition: 10.8%
[25]
  inhibition: -3.23%
[26]
  inhibition: -9.8%
[27]
  inhibition: 7.23%
[28]
  IC50: 13.9 nM
[29]
  inhibition: 1.4%
